# Data reported in patent US20130324598A1, “TREATING MYCOBACTERIAL INFECTION WITH CU+/++ BOOSTING THERAPEUTICS” (priority 2011, published 2013).
# Like-named read-outs stand apart in the source and are kept apart here.
# What was measured:
# [1] = test system: M. tuberculosis (mc^26230); type: cell-based, Mycobacterium tuberculosis
# macrophages = test: Toxicity of GTSM and ATSM towards macrophages (50% reduction in viability); type: cell-based
# Text: Fluorescence intensity was a measure of cell viability and was shown as percent of viability of untreated cells that were not exposed to GTSM-Cu or ATSM-Cu. The inhibitory concentration (IC50) was estimated based on the shape of the curve, and indicates the concentration at which a 50% decrease in viability is observed, and the therapeutic index was estimated based on the lethal dose (LD50) of these compounds for macrophages, which indicates a 50% reduction in viability. The LD50 of GTSM towards macrophages, the main residential cell type for M. tuberculosis, is 10 μM. […] The therapeutic index calculates as TI=LD50/IC50
# [2] = concentrations higher than 10 μM could not be tested
compound,measurement,setting,value
CNC1=NN=C(C)C(C)=NN=C(NC)[S][Cu][S]1 [ATSM-Cu complex],activity against Mycobacterium tuberculosis,"[1]; copper complex, FIG. 5 / FIG. 6",active
CNC(=S)N/N=C(C)/C(C)=N/NC(=S)NC [ATSM],Mycobacterium tuberculosis cell viability,[1],decreased significantly
same,toxicity towards macrophages,macrophages; up to 10 μM,did not show any toxicity
same,solubility,[2],limited solubility
CNC(=S)NN=CC=NNC(=S)NC [GTSM],therapeutic index (TD50/IC50; TI=LD50/IC50),"[1]; […], copper complex, estimated",25
same,Mycobacterium tuberculosis cell viability,"[1]; complexed with copper, 10 μM copper, fluorescence 12 hours after AlamarBlue addition",decreased significantly
same,LD50 towards macrophages,macrophages; 50% reduction in viability of macrophages,10 µM
